In series [1] the test system is C6 (Rat Glialtumor Cell or CCL-107) Cell Line. The experiment in a line: MTT colorimetric assay for cellular viability on C6 cells. The class given is cell-based. As to conditions: 48-h incubation. The protocol: Cell lines (C6 and Hep G2) were obtained from the Bioresource Collection and Research Center. All cell culture media and supplements were purchased from Invitrogen, Co. (GIBCO™, Gland Island, N.Y.) unless otherwise specified. All cells were grown in a humid atmosphere of 95% air and 5% CO2 at 37° C. Cell lines were maintained under standard conditions in culture media recommended by the American Type Culture Collection (ATCC), unless otherwise specified. C6 cells were grown in 82.5% Ham's F-10 medium, 15% horse serum and 2.5% FBS. Hep G2 were cultured in 90% MEM (Eagle) with non-essential amino acids and Earle's BSS amd 10% FBS.
All compounds were tested for inhibition of anchorage-dependent tumor cell growth using MTT assay. All compounds were individually solubilized in DMSO and diluted into appropriate growth medium at 2-fold desired final assay concentration. In assays, cells were seeded into 96-well plates and allowed to adhere for 24 h before drugs were introduced. Following a 48-h incubation, compounds and medium were removed by flicking, and each well was treated with 100 μl of 500 μg/ml MTT [3-(4,5-dimethylthiazol-2-yl)-2,5-diphenyltetrazolium bromide] in culture medium. Following a 4-h incubation period to allow metabolism of MTT by mitochondrial dehydrogenases of viable cells to form an insoluble formazan product, the crystals were dissolved in 100 μL of acid-SDS (0.01 N HCl in 10% SDS) by incubating the plate overnight. Absorbance, as a measure of cell viability, was read the following day in an ELISA plate reader at a wavelength of 550 nm. IC50 values were obtained by a linear regression analysis of percentage absorbance vs. log drug concentration.
In general terms: Formazan colour is commonly taken as a measure of viable cells.

Another series concerns Male ICR mice. Put plainly: Acute toxicity study, determination of LD50 values. The class given is in vivo. As to conditions: for LD50 / Survival at 2,000 mg/Kg: male ICR mice; for LD50: single intraperitoneal injection, observed for three days; for Acute symptoms observed: mouse, in vivo, ip; for Survival at 2,000 mg/Kg: i.p., 2,000 mg/Kg, three-day observation. The protocol: (§1) Leflunomide, its metabolite (A77 1726), and several isoxazole derivatives were chosen for the acute toxicity study. Male ICR mice were used for the intraperitoneal injection of each compound at different doses according to the following procedure: Small male ICR mice are chosen, each weighing 17–23 grams. They are equally classified at random into individual groups, 3–5 mice per group. A predetermined dose of each selected compound in minimum DMSO/liquid paraffin is injected once intraperitoneally to mice in each group. Toxic reaction is observed for three days, then the acute half lethal dose (LD50) is determined.

The nature of series [2]: Acute toxicity study, determination of LD50 values. The series is classed as in vivo. As to conditions: male, ICR, mouse, in vivo, ip. Here is the method: as §1
Series [3] relates to HT29 (adenocarcinoma of the colon). The experiment in a line: SRB cell proliferation assay on HT-29 cells. As to conditions: for Cell viability, Reading (avg of 3): HT-29, SRB reading at 515 nm, 5d exposure. The class given is cell-based, human. The protocol: The cell lines used were HT29 (adenocarcinoma of the colon). The tumor cells were grown at 37° C. in a humidified atmosphere (5% CO2) as monolayer cultures in RPMI 1640 medium supplemented with 10% FCS. Cells were trypsinized upon passage and maintained routinely.
UTL-5b and UTL-5 were dissolved in DMSO as 4 mM stock solutions and then further diluted in 1% carboxymethyl cellulose.
The SRB assay is routinely employed to measure cell proliferation by the US-NCI 60 cell line screen. Exponentially growing cells were harvested by trypsination, counted and seeded into 96 well plates (2.000 cells/well). […] Total protein mass was determined after 5d of continuous drug exposure by addition of Sulforhodamine B (0.4%) solution. Readings were read at 515 nm, as cell viability, and IC50 values were estimated based on the results.

`Cc1cc(C(=O)Nc2ccc(F)cc2)no1` [UTL-5k] registered a 50% inhibitory concentration (IC50) in series [1] of more than 1000 µM.

`C/C(O)=C(\C#N)C(=O)Nc1ccc(C(F)(F)F)cc1` [A77 1726, reference compound]: in the series on Male ICR mice, the LD50 came out at 200 mg/kg; the Acute symptoms observed result is “Cyanosis and deep necrosis”. Moreover, the concentration for half-maximal inhibition (IC50) in series [1] turned out to be 0.159 µM.

In series [2], `Cc1oncc1C(=O)Nc1ccc(C(F)(F)F)cc1` [Leflunomide, N-(4-trifluoromethylphenyl)-4-carboxamidyl-5-methylisoxazole, reference compound] displayed an LD50 at 3 days of 250 mg/kg. The Acute symptoms observed result in the series on Male ICR mice was “Cyanosis and deep necrosis”. In addition, in series [1] (Rattus norvegicus), the IC50 stood at 0.162 µM.

As for `Cc1cc(C(=O)Nc2ccc(Cl)cc2)no1` [UTL-5d], the LD50 in the series with Male ICR mice is on record as 1,800 mg/Kg. Also, the IC50 in series [1] was 0.81 µM; in series [3] (HT-29 cells, SRB assay, 5d continuous exposure, estimated from readings) it was 0.7 µM. Besides, in series [3] (HT29, SRB assay), the “Activity in human colon cancer cell line HT29 (in words)” value was “very good activity”. Besides, the “Cell viability, Reading (avg of 3)” value is 1.238 in series [3] (Conc. 0.001 μM); 1.014 in series [3] (Conc. 0.002 μM); 0.886 in series [3] (Conc. 0.01 μM); 0.914 in series [3] (Conc. 0.05 μM); 0.864 in series [3] (Conc. 0.1 μM); 0.893 in series [3] (Conc. 0.5 μM). Besides, the “Cell viability, Reading (avg of 3)” value in series [3] (Conc. 1 μM) came to 0.436; in series [3] (Conc. 10 μM), 0.314; in series [3] (Conc. 50 μM), 0.164; in series [3] (Conc. 100 μM) it was 0.13.

In the case of `Cc1cc(C(=O)Nc2ccc(C(=O)O)cc2)no1` [UTL-5j], in the series with Male ICR mice, the “Survival at 2,000 mg/Kg” value is “all mice were alive”, the LD50 was >2,000 mg/Kg and the Acute symptoms observed result is on record as “agitation”. The IC50 in series [1] was determined as 0.19 µM.

On to `Cc1cc(C(=O)Nc2cccc(Cl)c2)no1` [UTL-5c], for which the IC50 in series [1] was 0.163 µM.

For `Cc1cc(C(=O)Nc2ccc(Cl)cc2Cl)no1` [UTL-5g], in the series with Male ICR mice, the “Survival at 2,000 mg/Kg” value is on record as “all mice were alive”, the LD50 is >2,000 mg/Kg and the Acute symptoms observed entry was “agitation”. Further, in series [1], it took 0.18 µM to reach half-maximal inhibition (IC50).

As to `CCOC(=O)CC[C@H](NC(=O)c1ccc(NC(=O)c2cc(C)on2)cc1)C(=O)OCC` [UTL-5l], the IC50 in series [1] was found to be 0.16 µM.

In the case of `Cc1cc(C(=O)Nc2ccccc2)no1` [UTL-5a], in the series with Male ICR mice, the “Survival at 2,000 mg/Kg” value is given as “all mice were alive”, the LD50 was >2,000 mg/Kg and the Acute symptoms observed result is listed as “agitation”. In series [1], the IC50 turned out to be 1.37 µM.

In series [1], `COc1cc(NC(=O)c2cc(C)on2)cc(OC)c1OC` [UTL-5i] registered a 50% inhibitory concentration (IC50) of 1.18 µM.

On to `COc1ccc(NC(=O)c2cc(C)on2)cc1` [UTL-5h], for which the IC50 in series [1] is 0.35 µM.

The compound `Cc1cc(C(=O)Nc2ccc(C(F)(F)F)cc2)no1` [UTL-5f] displayed a half-maximal inhibitory concentration (IC50) in series [1] of 0.17 µM.

In turn, `Cc1cc(C(=O)Nc2cccc(C(F)(F)F)c2)no1` [UTL-5e] showed a 50% inhibitory concentration (IC50) in series [1] of 0.2 µM.

As usually defined, the IC50 is the concentration needed to halve the response being measured. By LD50 is commonly meant the dose expected to kill half of the subjects tested.

Source of the values: patent publication US7125902B2, “Methods, compounds, and diagnostics for cancer treatment” (priority 2004, dated 2006).
